In one test the target is PKC alpha (Homo sapiens, UniProt P17252). Nature of the test: PepTag Non-Radioactive PKC Assay, purified isoform. It counts as biochemical. The arrangement: purchased. The conditions noted are these: negative = activation. As for the experimental part:
(§1) The inhibitory effect of the PKI compounds 1 to 10 on purified commercially available isoforms representative of the 3 classes of PKC: cPKC (alpha, betaI/II) nPKC (delta and epsilon) aPKC (zeta) was assayed using the PepTag® Non-Radioactive PKC Assay (Promega, Madison, Wis.). The zeta isoform was tested with this assay although its affinity for the substrate provided in the kit was relatively low. The amount of enzyme in the reaction mixture for the PKC zeta assays was multiplied by 2. The assay was used following the manufacturer's recommendations. The principle of the assay is based on the difference in charge of phosphorylated (negatively charged) form versus the non-phoshorylated form of a fluorescent substrate. The two forms can be separated by gel electrophoresis and the negatively charged band excised and the fluorescence measured (exc. 440 nm and em. 590 nm) in 96 well plates on a Galaxy FluoStar plate reader. The PKI compounds were added to the assay mixture at 3 doses: 150, 300 and 600 μM and an extra 75 μM when the inhibition was too high. The assay is strictly biochemical and the doses of the compounds used, therefore, are generally not correlative with in vivo situations.

The next test addresses PKC beta 1 (Homo sapiens, UniProt P05771). Nature of the test: PepTag Non-Radioactive PKC Assay, purified isoform. The class given is biochemical. The arrangement: purchased. To be noted: negative = activation. The protocol: as §1
The target of the next test is T1, PKC epsilon (Homo sapiens, UniProt Q02156).
T1 sequence (Q02156 1-737): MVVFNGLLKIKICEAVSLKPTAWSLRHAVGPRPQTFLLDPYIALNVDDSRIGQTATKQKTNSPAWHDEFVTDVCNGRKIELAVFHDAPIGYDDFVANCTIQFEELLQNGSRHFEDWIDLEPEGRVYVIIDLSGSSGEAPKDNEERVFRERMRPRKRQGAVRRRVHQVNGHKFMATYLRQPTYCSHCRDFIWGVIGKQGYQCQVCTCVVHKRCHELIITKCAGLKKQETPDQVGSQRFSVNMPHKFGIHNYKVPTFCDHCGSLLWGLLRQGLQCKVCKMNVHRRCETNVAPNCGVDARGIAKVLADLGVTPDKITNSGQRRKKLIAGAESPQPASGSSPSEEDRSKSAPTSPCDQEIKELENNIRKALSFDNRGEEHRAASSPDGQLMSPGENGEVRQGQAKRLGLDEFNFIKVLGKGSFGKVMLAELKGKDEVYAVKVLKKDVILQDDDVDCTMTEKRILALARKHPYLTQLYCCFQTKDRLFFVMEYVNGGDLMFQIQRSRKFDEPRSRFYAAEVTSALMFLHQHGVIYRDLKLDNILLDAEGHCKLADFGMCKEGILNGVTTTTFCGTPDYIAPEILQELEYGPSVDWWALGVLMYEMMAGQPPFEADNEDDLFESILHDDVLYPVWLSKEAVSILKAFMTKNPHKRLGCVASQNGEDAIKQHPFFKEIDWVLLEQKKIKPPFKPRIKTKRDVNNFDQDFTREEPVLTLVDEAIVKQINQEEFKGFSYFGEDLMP
Briefly: PepTag Non-Radioactive PKC Assay, purified isoform. Set-up: purchased. The conditions noted are these: negative = activation. The class given is biochemical. The protocol:
as §1

The target in another test is T2, PKC zeta (Homo sapiens, UniProt Q05513).
T2 sequence (Q05513 1-592): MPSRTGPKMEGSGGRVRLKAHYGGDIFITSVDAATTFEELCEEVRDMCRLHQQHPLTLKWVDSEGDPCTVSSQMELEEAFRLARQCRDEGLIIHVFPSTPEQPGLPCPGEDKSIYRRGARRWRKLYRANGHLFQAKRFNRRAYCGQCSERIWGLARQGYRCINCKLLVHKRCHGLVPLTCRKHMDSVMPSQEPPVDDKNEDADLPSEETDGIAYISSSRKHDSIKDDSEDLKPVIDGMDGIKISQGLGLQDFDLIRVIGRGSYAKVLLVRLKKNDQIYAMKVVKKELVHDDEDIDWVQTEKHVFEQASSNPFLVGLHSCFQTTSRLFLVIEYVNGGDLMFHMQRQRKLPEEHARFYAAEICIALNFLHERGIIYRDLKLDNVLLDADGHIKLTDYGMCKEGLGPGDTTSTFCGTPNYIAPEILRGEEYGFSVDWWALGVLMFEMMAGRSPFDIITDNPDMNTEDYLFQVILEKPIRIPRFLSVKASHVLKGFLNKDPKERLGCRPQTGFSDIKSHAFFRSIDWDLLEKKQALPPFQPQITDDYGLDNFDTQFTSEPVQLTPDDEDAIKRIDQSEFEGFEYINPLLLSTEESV
Briefly: PepTag Non-Radioactive PKC Assay, purified isoform. The class given is biochemical. The arrangement: purchased. To be noted: enzyme amount x2, negative = activation. The protocol:
as §1

A further test addresses T3, PKC beta 2 (Homo sapiens, UniProt P05771).
T3 construct: purchased
Briefly: PepTag Non-Radioactive PKC Assay, purified isoform. The conditions noted are these: negative = activation. The class given is biochemical. The protocol:
as §1

For test [1], the target named is T4, PKC delta (Homo sapiens, UniProt Q05655). Nature of the test: PepTag Non-Radioactive PKC Assay, purified isoform. It counts as biochemical. To be noted: negative = activation. The protocol:
as §1

In test [2] the test system is IMR-32 human neuroblastoma cells. As for the experimental part: The ability of compounds PKI 1, PKI 2 and PKI 3 to inhibit cancer cell proliferation was tested in vitro using the human neuroblastoma cell line IMR-32. Monolayer cell cultures were trypsinized and the test compound was added at the doses indicated in Table 24 and internalized by pinocytic endocytosis using Influx TM pinocytic cell-loading reagent, a kit from Molecular Probes (Eugene, Oreg.) following the manufacturer's recommendations. The indicated doses refer to the concentration in the loading medium, which was used on 1×10^6 cells in a 10 μl volume, i.e. contained 10 μg to 100 ug of test compound that provides […] per cell. […] The cells were treated on day 0 of the experiment. The cells loaded with test compound were cultured in 96 well plates (5,000 cells in 100 μl per well), and the proliferation was monitored over 3 consecutive days. The increase in cell population was quantified using a Hoechst reagent-based assay (modified from Rao and Otto, 1992, Analytical Biochem. 207:186-192) that measures the total DNA of the population. Fluorescence was measured using a Millipore CytoFluor 2350 plate reader (excitation at 360 nm and emission at 460 nm). The measurements were obtained as relative fluorescence intensity, a value that is directly correlated to the total number of cells. Data are expressed as a percentage of matching controls that were supplemented with culture medium alone.
The ability of the compound TIM 9 to inhibit cancer cell proliferation was tested in vitro using the human neuroblastoma cell line IMR-32 and following the general protocol described in Example 14.
The ability of the compound TIM 11 to inhibit IMR-32 cancer cell proliferation was tested in vitro following the general protocol described in Example 14.
The ability of the compound TIM 10 to inhibit cancer cell proliferation was tested in vitro using the human neuroblastoma IMR-32 cell line and following the general protocol described in Example 14.

For test [3], the target named is T4, PKC delta. Nature of the test: Kinase-Glo Luminescent Kinase Assay. The class given is biochemical. As for the experimental part:
Compounds TIM 10, 11, 13, 14, 15, and 18-22 (see Table 28) were tested for their ability to inhibit the activity of PKC-alpha, beta 1, delta and epsilon isoforms the Kinase-Glo™ Luminescent Kinase Assay (Promega, Cat # V6712/3/4) following the manufacturer's instructions.
(Kinase-Glo reads ATP consumption through a luciferase reaction.)

Read-outs that look alike come from different tables or passages of the source. Where a SMILES comes first, the peptide text is derived from it. Bridges are numbered along the chain shown (N, C = ends). Roman numbers before positions name the chains, in order. [ ]: non-standard residue; d: D form. The star is where a group is joined. PNA(A) = NCCN(CC(=O)*)C(=O)Cn1cnc2c(N)ncnc21; Adenin9ylacetyl = Nc1ncnc2c1ncn2CC(=O)*; Gly(N-2-aminoethyl) = NCCNCC(=O)O

T3 sequence (P05771 1-673 isoform P05771-2): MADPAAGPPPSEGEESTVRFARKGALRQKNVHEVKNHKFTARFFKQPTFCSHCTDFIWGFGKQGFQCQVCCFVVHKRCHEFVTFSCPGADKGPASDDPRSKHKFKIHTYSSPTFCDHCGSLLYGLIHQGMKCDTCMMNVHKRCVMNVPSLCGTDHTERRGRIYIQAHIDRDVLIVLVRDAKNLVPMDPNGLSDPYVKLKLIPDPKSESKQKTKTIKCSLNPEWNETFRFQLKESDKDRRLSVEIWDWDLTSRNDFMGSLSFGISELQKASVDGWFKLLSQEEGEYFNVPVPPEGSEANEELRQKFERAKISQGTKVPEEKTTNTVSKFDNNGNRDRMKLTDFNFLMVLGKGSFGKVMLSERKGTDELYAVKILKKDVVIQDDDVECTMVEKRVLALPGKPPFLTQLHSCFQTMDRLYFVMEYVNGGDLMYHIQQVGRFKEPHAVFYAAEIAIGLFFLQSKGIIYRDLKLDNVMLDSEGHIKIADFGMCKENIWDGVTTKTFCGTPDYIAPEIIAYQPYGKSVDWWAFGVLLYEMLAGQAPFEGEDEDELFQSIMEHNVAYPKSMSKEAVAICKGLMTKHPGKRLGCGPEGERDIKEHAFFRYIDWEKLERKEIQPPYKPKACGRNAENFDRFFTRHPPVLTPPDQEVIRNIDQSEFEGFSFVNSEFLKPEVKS
Sequence of PKC beta 1 (P05771 whole entry, canonical isoform): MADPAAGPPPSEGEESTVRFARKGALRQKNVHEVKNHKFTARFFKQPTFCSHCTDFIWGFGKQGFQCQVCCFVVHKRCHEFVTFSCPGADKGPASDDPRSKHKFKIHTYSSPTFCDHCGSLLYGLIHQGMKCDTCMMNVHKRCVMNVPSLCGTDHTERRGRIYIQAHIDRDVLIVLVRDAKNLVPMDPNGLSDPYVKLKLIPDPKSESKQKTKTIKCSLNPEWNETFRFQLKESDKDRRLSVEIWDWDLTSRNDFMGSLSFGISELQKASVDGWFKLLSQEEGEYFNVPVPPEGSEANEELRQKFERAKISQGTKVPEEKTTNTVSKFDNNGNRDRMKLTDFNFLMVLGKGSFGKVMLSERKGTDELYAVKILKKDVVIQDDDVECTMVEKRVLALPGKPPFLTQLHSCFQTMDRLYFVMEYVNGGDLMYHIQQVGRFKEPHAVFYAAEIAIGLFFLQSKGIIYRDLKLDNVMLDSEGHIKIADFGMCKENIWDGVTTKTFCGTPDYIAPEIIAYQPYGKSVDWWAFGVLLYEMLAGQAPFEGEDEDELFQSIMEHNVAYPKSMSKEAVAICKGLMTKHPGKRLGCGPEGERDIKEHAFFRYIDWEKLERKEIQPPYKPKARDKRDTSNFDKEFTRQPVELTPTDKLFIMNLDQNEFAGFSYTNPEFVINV
T4 sequence (Q05655 whole entry, canonical isoform): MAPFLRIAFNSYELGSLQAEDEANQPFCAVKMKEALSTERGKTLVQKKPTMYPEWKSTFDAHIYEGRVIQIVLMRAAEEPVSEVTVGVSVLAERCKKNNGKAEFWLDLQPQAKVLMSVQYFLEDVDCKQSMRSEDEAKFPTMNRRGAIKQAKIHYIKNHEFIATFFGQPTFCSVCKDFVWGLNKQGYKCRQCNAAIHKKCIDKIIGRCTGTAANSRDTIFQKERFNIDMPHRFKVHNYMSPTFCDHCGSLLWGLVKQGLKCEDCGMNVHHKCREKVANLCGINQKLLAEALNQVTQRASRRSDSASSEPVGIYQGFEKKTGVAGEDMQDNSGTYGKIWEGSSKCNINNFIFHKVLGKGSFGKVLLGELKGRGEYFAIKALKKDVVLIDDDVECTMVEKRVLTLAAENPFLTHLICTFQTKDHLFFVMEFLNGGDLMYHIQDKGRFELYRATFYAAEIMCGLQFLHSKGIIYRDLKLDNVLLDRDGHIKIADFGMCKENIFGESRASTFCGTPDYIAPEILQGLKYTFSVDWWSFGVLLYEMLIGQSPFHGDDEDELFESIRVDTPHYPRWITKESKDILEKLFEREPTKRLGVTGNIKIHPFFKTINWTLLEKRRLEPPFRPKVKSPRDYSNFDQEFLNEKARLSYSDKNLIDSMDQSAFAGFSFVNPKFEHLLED

Turning to `CC[C@H](C)[C@H](NC(=O)[C@H](CSSC[C@H](NC(=O)CNC(=O)CN(CCN)C(=O)Cn1cnc2c(N)ncnc21)C(=O)N[C@@H](CCCCN)C(=O)NCC(=O)N[C@@H](CCCCN)C(=O)N[C@@H](Cc1ccccc1)C(=O)N[C@@H](CCCCN)C(=O)N[C@@H](CCCNC(=N)N)C(N)=O)NC(=O)[C@H](Cc1c[nH]cn1)NC(C)=O)C(=O)NCC(=O)N[C@@H](CCCNC(=N)N)C(=O)N[C@@H](Cc1ccccc1)C(=O)N[C@@H](CCCCN)C(N)=O` [PKI 1] (I: Adenin9ylacetyl-[Gly(N-2-aminoethyl)]GCKGKFKR-NH2 / II: Ac-HCIGRFK-NH2; disulfide I:3-II:2; C-terminus assumed), the inhibition at 150 µM on PKC alpha came out at 78%; at PKC beta 1, 71%; on PKC epsilon it was 54%; on PKC zeta, 15%; on PKC beta 2 it was 78%; at PKC delta [1] it was 56%. Moreover, the inhibition at 300 µM at PKC alpha stood at 84%; on PKC beta 1 it was 92%; on PKC epsilon it was 58%; at PKC zeta, 10%; at PKC beta 2, 90%; on PKC delta [1] it was 61%. Besides, the inhibition at 600 µM at PKC alpha was determined as 87%; on PKC beta 1 it was 93%; at PKC epsilon, 83%; on PKC zeta, 20%; at PKC beta 2, 92%; at PKC delta [1], 88%.
As for `CC(=O)N[C@@H](CC(C)C)C(=O)N[C@@H](CCCNC(=N)N)C(=O)N[C@@H](CCCNC(=N)N)C(=O)N[C@@H](C)C(=O)N[C@@H](CCCCNC(=O)CN(CCN)C(=O)Cn1cnc2c(N)ncnc21)C(=O)N[C@@H](CC(C)C)C(=O)NCC(N)=O` [PKI 2] (Ac-LRRAK(PNA(A))LG-NH2; C-terminus assumed), the inhibition at 150 µM on PKC alpha is -24%; at PKC beta 1 it was 18%; on PKC epsilon, 58%; on PKC zeta, 0%; at PKC beta 2, -59%; at PKC delta [1], 59%. The inhibition at 300 µM worked out at 35% at PKC alpha; 52% at PKC beta 1; 67% on PKC epsilon; 6% on PKC zeta; 61% at PKC beta 2; 79% on PKC delta [1]. The inhibition at 600 µM came out at 83% on PKC alpha; 70% on PKC beta 1; 84% at PKC epsilon; 20% at PKC zeta; 74% on PKC beta 2; 84% at PKC delta [1]. The “% Inhibition of IMR-32 proliferation” value in test [2] (1.0 mg/mL in loading medium, 24 h) was 49%; in test [2] (1.0 mg/mL in loading medium, 48 h), 51%; in test [2] (1.0 mg/mL in loading medium, 72 h), 10%; in test [2] (2.5 mg/mL in loading medium, 24 h) it was 29%; in test [2] (2.5 mg/mL in loading medium, 48 h) it was 21%; in test [2] (2.5 mg/mL in loading medium, 72 h), 26%. For the same compound, the “% Inhibition of IMR-32 proliferation” value in test [2] (5.0 mg/mL in loading medium, 24 h) is reported as 31%; in test [2] (5.0 mg/mL in loading medium, 48 h), 20%; in test [2] (5.0 mg/mL in loading medium, 72 h) it was 17%; in test [2] (10.0 mg/mL in loading medium, 24 h) it was 31%; in test [2] (10.0 mg/mL in loading medium, 48 h) it was 29%; in test [2] (10.0 mg/mL in loading medium, 72 h) it was 21%.
For the compound “Ac—FRRCFRL—(G)7—RRKKGGKDFVVKR—NH2 (Ac-FRRCFRLGGGGGGGRRKKGGKDFVVKR-NH2) [TIM 20, PRE 1 and PKI 4]”, the “% Inhibition PKC-δ” value in the test with PKC delta [3] (5.0 μM) came out at 46.0%; with PKC delta [3] (30.0 μM), 45.4%. The “inhibition of PKC delta activity (in words)” value in the test with PKC delta [3] (Kinase-Glo) was “good specificity for PKC delta”.

For orientation: inhibition means the relative decrease from the control value, in per cent.

For the origin of these results see patent US20110039770A1, “INHIBITORS OF PROTEIN KINASE C ISOFORMS AND USES THEREOF” (PHARMAGAP INC., priority 2005, published 2011).
